Where two headings read alike, the source gives them in different places.
Legend:
KRAS G12D = KRAS G12D (Homo sapiens, UniProt P01116, G12D); test: KRAS G12D Probe Displacement Assay (TR-FRET, GDP-loaded); assay type: binding
Text: (§1) The synthetic routes of probe 1 and 2, which have been disclosed in PCT/CN2022/070676, are hereby incorporated herein.

WT KRAS = WT KRAS (Homo sapiens, UniProt P01116); test: KRAS WT Probe Displacement Assay (TR-FRET, GDP-loaded); assay type: binding
Text: as §1

[1] = KRAS G12D, read-out: KRAS^G12D Probe Displacement Assay IC50
[2] = KRAS WT, read-out: KRAS^WT Probe Displacement Assay IC50

KRAS G12D, sequence (P01116 1-188 isoform P01116-2 G12D): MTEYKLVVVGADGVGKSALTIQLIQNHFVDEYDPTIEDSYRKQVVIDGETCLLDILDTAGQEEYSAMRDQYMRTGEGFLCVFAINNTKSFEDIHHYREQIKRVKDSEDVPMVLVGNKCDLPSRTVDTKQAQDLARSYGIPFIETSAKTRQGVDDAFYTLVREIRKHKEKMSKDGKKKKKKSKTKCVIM
WT KRAS, sequence (P01116 1-188 isoform P01116-2): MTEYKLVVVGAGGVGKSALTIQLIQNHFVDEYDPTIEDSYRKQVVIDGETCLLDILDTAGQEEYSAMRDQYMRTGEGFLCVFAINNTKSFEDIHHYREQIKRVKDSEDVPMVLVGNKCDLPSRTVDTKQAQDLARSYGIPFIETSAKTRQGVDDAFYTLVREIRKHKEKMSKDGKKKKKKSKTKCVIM

Structure (SMILES): Cc1cc(N)cc(-c2nc3c4c(nc(OCC5(CN6CCC=C(F)C6)CC5)nc4c2F)N2C[C@H]4CC[C@H](N4)[C@H]2CCO3)c1C(F)(F)F [Example 179, 3-((6aR,7S,10R)-1-fluoro-13-((1-((5-fluoro-3,6-dihydropyridin-1(2H)-yl)methyl)cyclopropyl)methoxy)-5,6,6a,7,8,9,10,11-octahydro-4-oxa-3,11a,12,14,15-pentaaza-7,10-methanocyclohepta[4,5]cycloocta[1,2,3-de]naphthalen-2-yl)-5-methyl-4-(trifluoromethyl)aniline]
- IC50 (KRAS G12D; [1]): < 0.3 nM
- IC50 (WT KRAS; [2]): 3 to 1000 nM

Structure (SMILES): Cc1cc(N)cc(-c2nc3c4c(nc(OC[C@@]5(C)CCCN(C6COC6)C5)nc4c2F)N2C[C@H]4CC[C@H](N4)[C@H]2CCO3)c1C(F)(F)F [Example 197, 3-((6aR,7S,10R)-1-fluoro-13-(((S)-3-methyl-1-(oxetan-3-yl)piperidin-3-yl)methoxy)-5,6,6a,7,8,9,10,11-octahydro-4-oxa-3,11a,12,14,15-pentaaza-7,10-methanocyclohepta[4,5]cycloocta[1,2,3-de]naphthalen-2-yl)-5-methyl-4-(trifluoromethyl)aniline]
- IC50 (KRAS G12D; [1]): < 0.3 nM
- IC50 (WT KRAS; [2]): 3 to 1000 nM

Structure (SMILES): Cc1cc(N)cc(-c2nc3c4c(nc(OC[C@@]56C[C@@H](F)CN5C[C@@]5(CC5(F)F)C6)nc4c2F)N2C[C@H]4CC[C@H](N4)[C@H]2CCO3)c1C(F)(F)F [Example 199, 3-((6aR,7S,10R)-1-fluoro-13-(((1S,6′R,7a′R)-2,2,6′-trifluorodihydro-1′H,3′H-spiro[cyclopropane-1,2′-pyrrolizin]-7a′(5′H)-yl)methoxy)-5,6,6a,7,8,9,10,11-octahydro-4-oxa-3,11a,12,14,15-pentaaza[7,10]methanocyclohepta[4,5]cycloocta[1,2,3-de]naphthalen-2-yl)-5-methyl-4-(trifluoromethyl)aniline]
- IC50 (KRAS G12D; [1]): < 0.3 nM
- IC50 (WT KRAS; [2]): 0.3 to 3 nM

Structure (SMILES): Cc1cc(N)cc(-c2nc3c4c(nc(OCC5(C(C)N(C)C)CC5)nc4c2F)N2C[C@H]4CC[C@H](N4)[C@H]2CCO3)c1C(F)(F)F (stereo partly drawn) [Example 135, 3-((6aR,7S,10R)-13-((1-(1-(dimethylamino)ethyl)cyclopropyl)methoxy)-1-fluoro-5,6,6a,7,8,9,10,11-octahydro-4-oxa-3,11a,12,14,15-pentaaza-7,10-methanocyclohepta[4,5]cycloocta [1,2,3-de]naphthalen-2-yl)-5-methyl-4-(trifluoromethyl)aniline]
- IC50 (KRAS G12D; [1]): < 0.3 nM
- IC50 (WT KRAS; [2]): 3 to 1000 nM

Structure (SMILES): [2H]C([2H])([2H])c1cc(N)cc(-c2nc3c4c(nc(OCC56C[C@@H](F)CN5C[C@H](F)C6)nc4c2F)N2C[C@H]4CC[C@H](N4)[C@H]2CCO3)c1C(F)(F)F [Example 73, 3-((6aR,7S,10R)-13-(((2R,6R)-2,6-difluorotetrahydro-1H-pyrrolizin-7a(5H)-yl)methoxy)-1-fluoro-5,6,6a,7,8,9,10,11-octahydro-4-oxa-3,11a,12,14,15-pentaaza-7,10-methanocyclohepta[4,5]cycloocta [1,2,3-de]naphthalen-2-yl)-5-(methyl-d3)-4-(trifluoromethyl)aniline]
- IC50 (KRAS G12D; [1]): < 0.3 nM
- IC50 (WT KRAS; [2]): 3 to 1000 nM

Structure (SMILES): [2H]C([2H])([2H])N1CCC(C(F)F)C(C)(C([2H])([2H])Oc2nc3c4c(nc(-c5cc(N)cc(C)c5C(F)(F)F)c(F)c4n2)OCC[C@@H]2[C@@H]4CC[C@H](CN32)N4)C1 (single isomer, unassigned) [Example 241]
- IC50 (KRAS G12D; [1]): < 0.3 nM
- IC50 (WT KRAS; [2]): 0.3 to 3 nM

Structure (SMILES): Cc1cc(N)cc(-c2nc3c4c(nc(OCC5(CN6CC(C(F)(F)F)C6)CC5)nc4c2F)N2C[C@H]4CC[C@H](N4)[C@H]2CCO3)c1C(F)(F)F [Example 79, 3-((6aR,7S,10R)-1-fluoro-13-((1-((3-(trifluoromethyl)azetidin-1-yl)methyl)cyclopropyl)methoxy)-5,6,6a,7,8,9,10,11-octahydro-4-oxa-3,11a,12,14,15-pentaaza-7,10-methanocyclohepta [4,5]cycloocta [1,2,3-de]naphthalen-2-yl)-5-methyl-4-(trifluoromethyl)aniline]
- IC50 (KRAS G12D; [1]): < 0.3 nM
- IC50 (WT KRAS; [2]): 3 to 1000 nM

Structure (SMILES): CCN1CCN(CC2(COc3nc4c5c(nc(-c6cc(N)cc(C)c6C(F)(F)F)c(F)c5n3)OCC[C@@H]3[C@@H]5CC[C@H](CN43)N5)CC2)CC1 [Example 152, 3-((6aR,7S,10R)-13-((1-((4-ethylpiperazin-1-yl)methyl)cyclopropyl)methoxy)-1-fluoro-5,6,6a,7,8,9,10,11-octahydro-4-oxa-3,11a,12,14,15-pentaaza-7,10-methano-cyclohepta[4,5]cycloocta [1,2,3-de]naphthalen-2-yl)-5-methyl-4-(trifluoromethyl) aniline]
- IC50 (KRAS G12D; KRAS^G12D Probe Displacement Assay IC50, KRAS G12D): < 0.3 nM
- IC50 (WT KRAS; KRAS^WT Probe Displacement Assay IC50, KRAS WT): 3 to 1000 nM

Structure (SMILES): [2H]C([2H])([2H])N1CCC(C(F)F)C(C)(C([2H])([2H])Oc2nc3c4c(nc(-c5cc(N)cc(Cl)c5C(F)(F)F)c(F)c4n2)OCC[C@@H]2[C@@H]4CC[C@H](CN32)N4)C1 (single isomer, unassigned) [Example 247]
- IC50 (KRAS G12D; [1]): < 0.3 nM
- IC50 (WT KRAS; [2]): 0.3 to 3 nM

Structure (SMILES): Cc1cc(N)cc(-c2nc3c4c(nc(OCC5(CN6CCC7(CC6)CC(F)(F)C7)CC5)nc4c2F)N2C[C@H]4CC[C@H](N4)[C@H]2CCO3)c1C(F)(F)F [Example 173, 3-((6aR,7S,10R)-13-((1-((2,2-difluoro-7-azaspiro[3.5]nonan-7-yl)methyl)cyclopropyl)methoxy)-1-fluoro-5,6,6a,7,8,9,10,11-octahydro-4-oxa-3,11a,12,14,15-pentaaza[7,10]methanocyclohepta[4,5]cycloocta[1,2,3-de]naphthalen-2-yl)-5-methyl-4-(trifluoromethyl)aniline]
- IC50 (KRAS G12D; [1]): < 0.3 nM
- IC50 (WT KRAS; [2]): 3 to 1000 nM

Structure (SMILES): [2H]C([2H])([2H])N1C[C@H](F)C[C@H]1[C@H](C)Oc1nc2c3c(nc(-c4cc(N)cc(C)c4C(F)(F)F)c(F)c3n1)OCC[C@@H]1[C@@H]3CC[C@H](CN21)N3 [Example 221, 3-((6aR,7S,10R)-1-fluoro-13-((S)-1-((2S,4R)-4-fluoro-1-(methyl-d3)pyrrolidin-2-yl)ethoxy)-5,6,6a,7,8,9,10,11-octahydro-4-oxa-3,11a,12,14,15-pentaaza-7,10-methanocyclohepta[4,5]cycloocta[1,2,3-de]naphthalen-2-yl)-5-methyl-4-(trifluoromethyl)aniline]
- IC50 (KRAS G12D; [1]): < 0.3 nM
- IC50 (WT KRAS; [2]): 3 to 1000 nM

Structure (SMILES): COC1CCN(CC2(COc3nc4c5c(nc(-c6cc(N)cc(C)c6C(F)(F)F)c(F)c5n3)OCC[C@@H]3[C@@H]5CC[C@H](CN43)N5)CC2)CC1 [Example 110, 3-((6aR,7S,10R)-1-fluoro-13-((1-((4-methoxypiperidin-1-yl)methyl)cyclopropyl)methoxy)-5,6,6a,7,8,9,10,11-octahydro-4-oxa-3,11a,12,14,15-pentaaza-7,10-methanocyclohepta[4,5]cycloocta[1,2,3-de]naphthalen-2-yl)-5-methyl-4-(trifluoromethyl)aniline]
- IC50 (KRAS G12D; [1]): < 0.3 nM
- IC50 (WT KRAS; [2]): 3 to 1000 nM

Structure (SMILES): Cc1cc(N)cc(-c2nc3c4c(nc(OCC5(CN6CCC7(CC6)COC7)CC5)nc4c2F)N2C[C@H]4CC[C@H](N4)[C@H]2CCO3)c1C(F)(F)F [Example 102, 3-((6aR,7S,10R)-13-((1-((2-oxa-7-azaspiro[3.5]nonan-7-yl)methyl)cyclopropyl)methoxy)-1-fluoro-5,6,6a,7,8,9,10,11-octahydro-4-oxa-3,11a,12,14,15-pentaaza[7,10]methanocyclohepta [4,5]cycloocta [1,2,3-de]naphthalen-2-yl)-5-methyl-4-(trifluoromethyl)aniline]
- IC50 (KRAS G12D; [1]): < 0.3 nM
- IC50 (WT KRAS; [2]): 0.3 to 3 nM

Structure (SMILES): Cc1cc(N)cc(-c2nc3c4c(nc(O[C@H](C)[C@@H]5CCCN5C)nc4c2F)N2C[C@H]4CC[C@H](N4)[C@H]2CCO3)c1C(F)(F)F [Example 38, 3-((6aR,7S,10R)-1-fluoro-13-((R)-1-((S)-1-methylpyrrolidin-2-yl)ethoxy)-5,6,6a,7,8,9,10,11-octahydro-4-oxa-3,11a,12,14,15-pentaaza-7,10-methanocyclohepta[4,5]cycloocta [1,2,3-de]naphthalen-2-yl)-5-methyl-4-(trifluoromethyl)aniline]
- IC50 (KRAS G12D; [1]): 0.3 to 3 nM
- IC50 (WT KRAS; [2]): 3 to 1000 nM

Reference: US20260347373A1, “HETEROCYCLIC COMPOUNDS, COMPOSITIONS THEREOF, AND METHODS OF TREATMENT THEREWITH” (BeOne Medicines I GmbH, priority 2023, published 2026)
